According to patent US7968526B2, “Antisense oligonucleotides directed to ribonucleotide reductase R2 and uses thereof in the treatment of cancer” (Lorus Therapeutics Inc., priority 2003, dated 2011):

What was measured:
[1] = Tissue distribution in the monkey (CE method); assay type: in vivo
Description: (§1) The toxicokinetics and tissue distribution of SEQ ID NO:1 (and related oligonucleotide metabolites obtained from exonuclease-mediated chain shortening) were determined in rats and monkeys. In addition to investigating the pharmacokinetics and tissue distribution of SEQ ID NO:1, the purpose of the studies was to correlate adverse effects in the animal studies to the concentrations of SEQ ID NO:1 (and metabolites) in tissue and blood. A capillary electrophoresis (CE) method was used to measure the concentrations of SEQ ID NO:1 (and metabolites) in plasma and tissues.
The concentrations of SEQ ID NO:1 (and related n+1, n−1 to n−15 oligonucleotide metabolites) in the following rat and monkey tissues were measured by a validated CE method (Southwest Bio-Labs, Inc.): kidney, liver, spleen, heart, lung, bone marrow (rat), lymph nodes (monkey) and brain tissues. The tissue samples were collected from the designated animals as described in the 21-day toxicity studies: rats, administered bolus intravenous injections of SEQ ID NO:1 every other day at 2, 10, or 50 mg/kg; and monkeys administered SEQ ID NO:1 by continuous intravenous infusion at 2, 10, or 50 mg/kg/day.

[2] = Pharmacokinetics in the rat (plasma, CE method); assay type: in vivo
Description: as §1
In a pharmacokinetic study, groups of male rats were administered one or two bolus i.v. injections (tail vein) of SEQ ID NO:1 at a dose of 50 mg/kg (295 mg/m^2) and intravenously infused (abdominal vena cava) for up to 48 h at a dose of 50 mg/kg/day (295 mg/m^2/day). Blood samples were collected into EDTA-containing tubes from subsets of animals in each group at various sampling times up to 56 h after initiation of infusion or bolus injection. Parent SEQ ID NO:1 concentrations were measured in plasma by a validated CE method.

[3] = 2 mg/kg/day continuous i.v. infusion, Necropsy Day 22
[4] = 10 mg/kg/day continuous i.v. infusion, Necropsy Day 22
[5] = 50 mg/kg/day continuous i.v. infusion, Necropsy Day 22
[6] = 50 mg/kg/day continuous i.v. infusion, Necropsy Day 43
[7] = 50 mg/kg/day continuous intravenous infusion

In the case of “5′-GGCTAAATCGCTCCACCAAG-3′ (all phosphorothioate, sugars by position and methylation of C not given here) [SEQ ID NO: 1, fully phosphorothioated antisense oligonucleotide that hybridizes to the coding region of R2 mRNA]”, the “Rank order of tissue concentrations” value [1] is reported as “kidney>liver>bone marrow>spleen>heart>lung”, the “Mean Concentration SEQ ID NO: 1, Brain” value [1, 3] is reported as “BDL (below detectable limits (1 μg/g rat; 0.2 μg/g monkey))” and the “Mean Concentration SEQ ID NO: 1, Heart” value [1, 3] is reported as “BDL (below detectable limits (1 μg/g rat; 0.2 μg/g monkey))”. For the same substance, the “Mean Concentration SEQ ID NO: 1, Kidney” value [1, 3] was 176.2 µg/g, the “Mean Concentration SEQ ID NO: 1, Liver” value [1, 3] was 137.8 µg/g and the “Mean Concentration SEQ ID NO: 1, Lung” value [1, 3] was “BDL (below detectable limits (1 μg/g rat; 0.2 μg/g monkey))”. For the same substance, the “Mean Concentration SEQ ID NO: 1, Lymph node” value [1, 3] was 2.2 µg/g, the “Mean Concentration SEQ ID NO: 1, Spleen” value [1, 3] was 17.8 µg/g and the “Mean Concentration total metabolites (n + 1 through n − 13), Brain” value (“Mean Concentration total metabolites … Brain” below) [1, 3] was “BDL (below detectable limits (1 μg/g rat; 0.2 μg/g monkey))”. For the same substance, the “Mean Concentration total metabolites (n + 1 through n − 13), Heart” value (“Mean Concentration total metabolites … Heart” for short) [1, 3] was “BDL (below detectable limits (1 μg/g rat; 0.2 μg/g monkey))”, the “Mean Concentration total metabolites (n + 1 through n − 13), Kidney” value (from here on “Mean Concentration total metabolites … Kidney”) [1, 3] was 605.8 µg/g and the “Mean Concentration total metabolites (n + 1 through n − 13), Liver” value (shortened to “Mean Concentration total metabolites … Liver”) [1, 3] was 425.7 µg/g. The “Mean Concentration total metabolites (n + 1 through n − 13), Lung” value (shortened to “Mean Concentration total metabolites … Lung”) [1, 3] was “BDL (below detectable limits (1 μg/g rat; 0.2 μg/g monkey))”, the “Mean Concentration total metabolites (n + 1 through n − 13), Lymph node” value [1, 3] was 21.0 µg/g and the “Mean Concentration total metabolites (n + 1 through n − 13), Spleen” value (from here on “Mean Concentration total metabolites … Spleen”) [1, 3] was 71.4 µg/g. For the same substance, the “Mean Concentration SEQ ID NO: 1, Brain” value [1, 4] was “BDL (below detectable limits (1 μg/g rat; 0.2 μg/g monkey))”, the “Mean Concentration SEQ ID NO: 1, Heart” value [1, 4] was 1.9 µg/g and the “Mean Concentration SEQ ID NO: 1, Kidney” value [1, 4] was 246.5 µg/g. For the same substance, the “Mean Concentration SEQ ID NO: 1, Liver” value [1, 4] was 129.0 µg/g, the “Mean Concentration SEQ ID NO: 1, Lung” value [1, 4] was 1.6 µg/g and the “Mean Concentration SEQ ID NO: 1, Lymph node” value [1, 4] was 13.1 µg/g. For the same substance, the “Mean Concentration SEQ ID NO: 1, Spleen” value [1, 4] was 82.1 µg/g, the “Mean Concentration total metabolites … Brain” value [1, 4] was “BDL (below detectable limits (1 μg/g rat; 0.2 μg/g monkey))” and the “Mean Concentration total metabolites … Heart” value [1, 4] was 4.6 µg/g. For the same substance, the “Mean Concentration total metabolites … Kidney” value [1, 4] was 886.1 µg/g, the “Mean Concentration total metabolites … Liver” value [1, 4] was 486.2 µg/g and the “Mean Concentration total metabolites … Lung” value [1, 4] was 4.2 µg/g. For the same substance, the “Mean Concentration total metabolites (n + 1 through n − 13), Lymph node” value [1, 4] was 86.2 µg/g, the “Mean Concentration total metabolites … Spleen” value [1, 4] was 198.3 µg/g and the “Mean Concentration SEQ ID NO: 1, Brain” value [1, 5] was “BDL (below detectable limits (1 μg/g rat; 0.2 μg/g monkey))”. For the same substance, the “Mean Concentration SEQ ID NO: 1, Heart” value [1, 5] was 46.3 µg/g, the “Mean Concentration SEQ ID NO: 1, Kidney” value [1, 5] was 1425.2 µg/g and the “Mean Concentration SEQ ID NO: 1, Liver” value [1, 5] was 316.6 µg/g. The “Mean Concentration SEQ ID NO: 1, Lung” value [1, 5] was 39.2 µg/g, the “Mean Concentration SEQ ID NO: 1, Lymph node” value [1, 5] was 253.5 µg/g and the “Mean Concentration SEQ ID NO: 1, Spleen” value [1, 5] was 260.6 µg/g. For the same substance, the “Mean Concentration total metabolites … Brain” value [1, 5] was “BDL (below detectable limits (1 μg/g rat; 0.2 μg/g monkey))”, the “Mean Concentration total metabolites … Heart” value [1, 5] was 113.8 µg/g and the “Mean Concentration total metabolites … Kidney” value [1, 5] was 3230.8 µg/g. For the same substance, the “Mean Concentration total metabolites … Liver” value [1, 5] was 806.6 µg/g, the “Mean Concentration total metabolites … Lung” value [1, 5] was 124.0 µg/g and the “Mean Concentration total metabolites (n + 1 through n − 13), Lymph node” value [1, 5] was 801.2 µg/g. The “Mean Concentration total metabolites … Spleen” value [1, 5] was 1097 µg/g, the “Mean Concentration SEQ ID NO: 1, Brain” value [1, 6] was “BDL (below detectable limits (1 μg/g rat; 0.2 μg/g monkey))” and the “Mean Concentration SEQ ID NO: 1, Heart” value [1, 6] was 0.5 µg/g. For the same substance, the “Mean Concentration SEQ ID NO: 1, Kidney” value [1, 6] was 1.6 µg/g, the “Mean Concentration SEQ ID NO: 1, Liver” value [1, 6] was 0.9 µg/g and the “Mean Concentration SEQ ID NO: 1, Lung” value [1, 6] was “BDL (below detectable limits (1 μg/g rat; 0.2 μg/g monkey))”. The “Mean Concentration SEQ ID NO: 1, Lymph node” value [1, 6] was 59.9 µg/g, the “Mean Concentration SEQ ID NO: 1, Spleen” value [1, 6] was 57.2 µg/g and the “Mean Concentration total metabolites … Brain” value [1, 6] was “BDL (below detectable limits (1 μg/g rat; 0.2 μg/g monkey))”. For the same substance, the “Mean Concentration total metabolites … Heart” value [1, 6] was 3.5 µg/g, the “Mean Concentration total metabolites … Kidney” value [1, 6] was 10.5 µg/g and the “Mean Concentration total metabolites … Liver” value [1, 6] was 2.3 µg/g. For the same substance, the “Mean Concentration total metabolites … Lung” value [1, 6] was “BDL (below detectable limits (1 μg/g rat; 0.2 μg/g monkey))”, the “Mean Concentration total metabolites (n + 1 through n − 13), Lymph node” value [1, 6] was 371.3 µg/g and the “Mean Concentration total metabolites … Spleen” value [1, 6] was 367.8 µg/g. For the same substance, the “Concentrations in the brain” value ([1]; lower limit for detection 0.2 μg/g) was “below the limits of detection”, the “AUC(0-24)” value [2, 7] was 208 µg·h/mL and the “Cl (plasma clearance)” value [2, 7] was 3.6 mL/min/kg. The “Css (mean plasma steady state concentration)” value [2, 7] was 9.62 µg/mL, the “Time after infusion initiation at which steady state level was achieved” value [2, 7] was “approximately 3 hr” and the “AUC(0-24)” value ([2]; 50 mg/kg/day i.v. bolus) was 369 µg·h/mL. The “AUC(0-inf)” value ([2]; 50 mg/kg/day i.v. bolus) was 650 µg·h/mL, the “AUC(0-t)” value ([2]; 50 mg/kg/day i.v. bolus) was 637 µg·h/mL and the “Cl (plasma clearance)” value ([2]; 50 mg/kg/day i.v. bolus) was 2.57 mL/min/kg. The Kel ([2]; 50 mg/kg/day i.v. bolus) was 0.5109 h⁻¹, the “T1/2 (plasma half-life)” value ([2]; 50 mg/kg/day i.v. bolus) was 81.6 min and the Tmax ([2]; 50 mg/kg/day i.v. bolus) was 4.98 min. For the same substance, the Cmax ([2]; 50 mg/kg/day i.v. bolus, after second bolus injection) was 679 µg/mL.
